Values belong to the molecule of their own block, whether it stands above or below them. Activity calls are given as the source filed them. No cut-off for these calls is given here.
Key:
[1] = biological target: Mitogen-activated protein kinase 14 (Homo sapiens, UniProt Q16539); test: Inhibition of human recombinant p38alpha expressed in Escherichia coli incubated for 60 mins in presence of ATP by microplate scintillation counter
LX-2 [2] = test: Cytotoxicity against human LX-2 cells assessed as reduction in cell viability at 100 uM incubated for 24 hrs by MTT assay; format: toxicity, cell-based; conditions: lx-2, 24 h
LX-2 [3] = test: Anti-fibrotic activity in human LX-2 cells assessed as inhibition of alpha-SMA mRNA expression at 5 uM preincubated with compound for 1 hrs followed by TGFbeta addition and measured after 24 hrs by RT-PCR analysis; format: functional, cell-based; conditions: time 25.0 hrs
LX-2 [4] = test: Anti-fibrotic activity in human LX-2 cells assessed as reduction in collagen I protein expression at 20 uM preincubated with compound for 1 hrs followed by TGFbeta addition and measured after 24 hrs by Western blot analysis; format: functional, cell-based; conditions: time 25.0 hrs
LX-2 [5] = test: Cytotoxicity against human LX-2 cells assessed as reduction in cell viability at 6.25 uM incubated for 24 hrs by MTT assay; format: toxicity, cell-based; conditions: lx-2, 24 h
LX-2 [6] = test: Anti-fibrotic activity in human LX-2 cells assessed as reduction in alpha-SMA protein expression at 20 uM preincubated with compound for 1 hrs followed by TGFbeta addition and measured after 24 hrs by Western blot analysis; format: functional, cell-based; conditions: time 25.0 hrs
LX-2 [7] = test: Cytotoxicity against human LX-2 cells assessed as reduction in cell viability upto 100 uM incubated for 24 hrs by MTT assay; format: toxicity, cell-based; conditions: lx-2, 24 h
LX-2 [8] = test: Anti-fibrotic activity in human LX-2 cells assessed as reduction in alpha-SMA protein expression at 5 uM preincubated with compound for 1 hrs followed by TGFbeta addition and measured after 24 hrs by Western blot analysis; format: functional, cell-based; conditions: time 25.0 hrs
[9] = Oral bioavailability in male Sprague-Dawley rat at 15 mg/kg measured after 8 hrs by UPLC-MS/MS analysis; format: ADME, organism-based; conditions: in vivo
[10] = Clearance in male Sprague-Dawley rat at 15 mg/kg, po measured after 8 hrs by UPLC-MS/MS analysis; format: ADME, organism-based; conditions: in vivo
[11] = MRT (0 to t) in male Sprague-Dawley rat at 15 mg/kg, po measured after 8 hrs by UPLC-MS/MS analysis; format: ADME, organism-based; conditions: in vivo
[12] = Cmax in male Sprague-Dawley rat at 4 mg/kg, iv measured after 8 hrs by UPLC-MS/MS analysis; format: ADME, organism-based; conditions: in vivo
[13] = AUC (0 to infinity) in male Sprague-Dawley rat at 15 mg/kg, po measured after 8 hrs by UPLC-MS/MS analysis; format: ADME, organism-based; conditions: in vivo
[14] = Tmax in male Sprague-Dawley rat at 15 mg/kg, po measured after 8 hrs by UPLC-MS/MS analysis; format: ADME, organism-based; conditions: in vivo
[15] = Half-life in male Sprague-Dawley rat at 15 mg/kg, po measured after 8 hrs by UPLC-MS/MS analysis; format: ADME, organism-based; conditions: in vivo
LX-2 [16] = test: Anti-fibrotic activity in human LX-2 cells assessed as inhibition of alpha-SMA expression preincubated with compound for 1 hrs followed by TGFbeta addition and measured after 24 hrs by DAPI staining based confocal laser scanning microscopic analysis; format: functional, cell-based; conditions: dose 5-20 µM, time 25.0 hrs
[17] = AUC (0 to t) in male Sprague-Dawley rat at 15 mg/kg, po measured after 8 hrs by UPLC-MS/MS analysis; format: ADME, organism-based; conditions: in vivo
[18] = MRT (0 to t) in male Sprague-Dawley rat at 4 mg/kg, iv measured after 8 hrs by UPLC-MS/MS analysis; format: ADME, organism-based; conditions: in vivo
[19] = Cmax in male Sprague-Dawley rat at 15 mg/kg, po measured after 8 hrs by UPLC-MS/MS analysis; format: ADME, organism-based; conditions: in vivo
[20] = Tmax in male Sprague-Dawley rat at 4 mg/kg, iv measured after 8 hrs by UPLC-MS/MS analysis; format: ADME, organism-based; conditions: in vivo
[21] = Clearance in male Sprague-Dawley rat at 4 mg/kg, iv measured after 8 hrs by UPLC-MS/MS analysis; format: ADME, organism-based; conditions: in vivo
[22] = AUC (0 to infinity) in male Sprague-Dawley rat at 4 mg/kg, iv measured after 8 hrs by UPLC-MS/MS analysis; format: ADME, organism-based; conditions: in vivo
[23] = AUC (0 to t) in male Sprague-Dawley rat at 4 mg/kg, iv measured after 8 hrs by UPLC-MS/MS analysis; format: ADME, organism-based; conditions: in vivo
[24] = Half-life in male Sprague-Dawley rat at 4 mg/kg, iv measured after 8 hrs by UPLC-MS/MS analysis; format: ADME, organism-based; conditions: in vivo
LX-2 [25] = test: Cytotoxicity against human LX-2 cells assessed as reduction in cell viability upto 50 uM incubated for 24 hrs by MTT assay; format: toxicity, cell-based; conditions: lx-2, 24 h

Mitogen-activated protein kinase 14, sequence (Q16539 whole entry): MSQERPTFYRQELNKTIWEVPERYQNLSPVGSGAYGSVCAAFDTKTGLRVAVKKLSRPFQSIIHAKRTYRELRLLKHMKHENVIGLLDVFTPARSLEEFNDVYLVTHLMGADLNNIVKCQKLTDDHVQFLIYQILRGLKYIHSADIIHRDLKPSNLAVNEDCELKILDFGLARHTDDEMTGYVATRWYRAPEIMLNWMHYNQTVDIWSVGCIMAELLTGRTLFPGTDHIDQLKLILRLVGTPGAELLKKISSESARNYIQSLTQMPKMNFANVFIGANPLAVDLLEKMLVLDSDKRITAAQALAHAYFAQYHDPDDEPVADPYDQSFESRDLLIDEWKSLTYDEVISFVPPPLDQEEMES

- IC50 [1]: > 1 µM
Structure (SMILES): Cc1cccc(-c2[nH]c(CNC(=O)[C@H]3CCCCN3)nc2-c2ccc3ncnn3c2)n1

- IC50 [1]: > 1 µM
Structure (SMILES): Cc1cccc(-c2nc(NC(=S)[C@H](N)CC(C)C)sc2-c2ccc3ncnn3c2)n1

- IC50 [1]: > 3 µM
Structure (SMILES): Cc1cccc(-c2[nH]c(CNC(=O)[C@H](C)N)nc2-c2ccc3ncnn3c2)n1

- IC50 [1]: > 3 µM
Structure (SMILES): Cc1cccc(-c2nc(NC(=O)[C@H](N)Cc3ccccc3)sc2-c2ccc3ncnn3c2)n1

- IC50 [1]: > 3 µM
Structure (SMILES): Cc1cccc(-c2nc(NC(=O)[C@@H]3CCCCN3)sc2-c2ccc3ncnn3c2)n1

- IC50 [1]: > 1 µM
Structure (SMILES): Cc1cccc(-c2nc(NC(=S)[C@@H](N)CC(C)C)sc2-c2ccc3ncnn3c2)n1

- IC50 [1]: > 3 µM
Structure (SMILES): Cc1cccc(-c2nc(NC(=O)[C@H](N)CC(C)C)sc2-c2ccc3ncnn3c2)n1
- Activity (LX-2 [2]): Toxic
- Activity (LX-2 [3]): Active
- Activity (LX-2 [4]): Active
- Activity (LX-2 [5]): Non-Toxic
- Activity (LX-2 [6]): Active

- IC50 [1]: > 1 µM
Structure (SMILES): Cc1cccc(-c2nc(NC(=O)[C@@H](N)CC(C)C)sc2-c2ccc3ncnn3c2)n1
- Activity (LX-2 [3]): Active
- Activity (LX-2 [7]): Non-Toxic
- Activity (LX-2 [4]): Active
- Activity (LX-2 [6]): Active

- IC50 [1]: > 1 µM
Structure (SMILES): Cc1cccc(-c2[nH]c(CNC(=S)[C@H](N)Cc3ccccc3)nc2-c2ccc3ncnn3c2)n1

Structure (SMILES): Cc1cccc(-c2nn3c(c2-c2ccnc4ccc(C(N)=O)cc24)CCC3)n1
- Activity (LX-2 [8]): Active

- IC50 [1]: > 3 µM
Structure (SMILES): Cc1cccc(-c2[nH]c(CNC(=O)[C@H](N)CC(C)C)nc2-c2ccc3ncnn3c2)n1

- IC50 [1]: > 3 µM
Structure (SMILES): Cc1cccc(-c2[nH]c(CNC(=O)[C@@H]3CCCCN3)nc2-c2ccc3ncnn3c2)n1

- IC50 [1]: > 3 µM
Structure (SMILES): Cc1cccc(-c2[nH]c(CNC(=O)[C@@H](N)CC(C)C)nc2-c2ccc3ncnn3c2)n1

- IC50 [1]: > 3 µM
Structure (SMILES): Cc1cccc(-c2nc(NC(=O)[C@H]3CCCCN3)sc2-c2ccc3ncnn3c2)n1

- IC50 [1]: > 3 µM
Structure (SMILES): Cc1cccc(-c2nc(NC(=O)[C@@H](N)Cc3ccccc3)sc2-c2ccc3ncnn3c2)n1

- IC50 [1]: > 1 µM
Structure (SMILES): Cc1cccc(-c2nc(NC(=O)[C@H](C)N)sc2-c2ccc3ncnn3c2)n1

- IC50 [1]: > 3 µM
Structure (SMILES): Cc1cccc(-c2[nH]c(CNC(=S)[C@@H](N)Cc3ccccc3)nc2-c2ccc3ncnn3c2)n1

- F [9]: 2.59%
- CL/F [10]: 109 mL/min/kg
- MRT last at 8 h [11]: 2.79 h
- Cmax [12]: 43100 ng/mL
- AUC [13]: 2667 ng·h/mL
- Tmax [14]: 6.6 min
- half-life [15]: 9.14 h
- AUC(0-t) at 8 h [17]: 1220 ng·h/mL
- MRT last at 8 h [18]: 1.01 h
- Cmax [19]: 1390 ng/mL
- Tmax [20]: 0 h
- clearance [21]: 5.23 mL/min/kg
- AUC [22]: 12802 ng·h/mL
- AUC(0-t) at 8 h [23]: 12500 ng·h/mL
- half-life [24]: 2.24 h
Structure (SMILES): Cc1cccc(-c2[nH]c(CNC(=O)[C@H](N)Cc3ccccc3)nc2-c2ccc3ncnn3c2)n1
- Activity (LX-2 [3]): Active
- Activity (LX-2 [16]): Dose-Dependent Effect
- Activity (LX-2 [4]): Active
- Activity (LX-2 [6]): Active
- Activity (LX-2 [25]): Non-Toxic
